Assay [1] concerns the target T1, Avi-KRAS G12V (2-169) GTP/RAF1 RBD-3xFLAG (51-131) (Homo sapiens, UniProt P01116, G12V).
T1 construct: Avi-KRAS G12V (2-169)
The assay is described as follows: Raf1-KRAS G12V-GTP disruption HTRF assay (Biological Example 3). The following applies: KRAS G12V, GTP-loaded. The class given is binding. In short, it runs like this: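 Compounds were titrated 10-point, 3-fold from 30 μM against preformed KRAS-GTP:RAF1 RBD (51-131) complexes at 50 nM, using KRAS 2-169 as WT, G12C, G12D or G12V. After 1 h at room temperature in Tris pH 7.5 buffer with MgCl2 and 10% DMSO, time-resolved fluorescence was read. Results are percent activity versus DMSO.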
On the technique in general: Time-resolved FRET reads energy transfer from a long-lived donor to a nearby acceptor.

For assay [2], the target named is T2, Avi-KRAS G12D (1-169) GppNHp/RAF1 RBD-3xFLAG (52-151) (Homo sapiens, UniProt P01116, G12D).
T2 construct: Avi-KRAS G12D (1-169)
The assay is described as follows: Raf1-KRAS G12D-GppNHP disruption HTRF assay (Biological Example 1). It is filed as binding. An outline of the steps:
(§1)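 Measured with a KRAS/RAF1 HTRF assay at pH 7.5 in 10% DMSO, with two 1 h room-temperature incubations with shaking.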

In assay [3] the test system is GP2d cells (KRAS G12D). The assay is described as follows: Cell-based pERK HTRF assay in GP2d cell (Biological Example 2). The following applies: GP2d (KRAS G12D) cells. An outline of the steps:
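HTRF read-out of pERK (excitation 320 nm, emission 615 nm) after lysates sat 4–24 h at room temperature with Eu cryptate and d2 antibodies.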

Assay [4] addresses T3, Avi-KRAS G12V (1-169) GppNHp/RAF1 RBD-3xFLAG (52-151) (Homo sapiens, UniProt P01116, G12V).
T3 construct: Avi-KRAS G12V (1-169)
As to the kind of experiment: Raf1-KRAS G12V-GppNHP disruption HTRF assay (Biological Example 1). It is filed as binding. In short, it runs like this: as §1

[5] abbreviates: KRAS G12D, GppNHp-loaded, class symbols.
Setting [6] is: KRAS G12V, GppNHp-loaded, class symbols.
Setting [7] is: KRAS G12D, GppNHp-loaded, Table 11.
The mark [8] stands for this setting: KRAS G12V, GppNHp-loaded, Table 11.

Some results are limits rather than exact numbers.

T1 sequence (P01116 2-169 isoform P01116-2 G12V): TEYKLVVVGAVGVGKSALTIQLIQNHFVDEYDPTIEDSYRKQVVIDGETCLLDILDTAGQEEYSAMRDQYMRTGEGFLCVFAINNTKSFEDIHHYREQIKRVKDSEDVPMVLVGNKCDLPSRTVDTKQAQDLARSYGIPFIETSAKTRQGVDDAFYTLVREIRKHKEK
T2 sequence (P01116 1-169 isoform P01116-2 G12D): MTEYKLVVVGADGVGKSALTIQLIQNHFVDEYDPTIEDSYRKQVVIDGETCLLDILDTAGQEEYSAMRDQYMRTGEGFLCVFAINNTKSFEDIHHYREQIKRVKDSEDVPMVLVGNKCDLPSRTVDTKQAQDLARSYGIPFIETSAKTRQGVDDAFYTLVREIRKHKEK
T3 sequence (P01116 1-169 isoform P01116-2 G12V): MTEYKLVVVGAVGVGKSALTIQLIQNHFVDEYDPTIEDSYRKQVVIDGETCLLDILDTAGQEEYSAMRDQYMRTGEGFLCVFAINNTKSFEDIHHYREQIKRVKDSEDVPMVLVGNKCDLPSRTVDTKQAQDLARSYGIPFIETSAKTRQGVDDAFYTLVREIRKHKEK

On to `CCN(c1nc(OC[C@@]23CCCN2C[C@H](F)C3)nc2c(F)c(-c3ccc(F)c4sc(N)c(C#N)c34)c(C(F)(F)F)cc12)[C@H]1C[C@@H](C)N(C(=O)[C@H]2CCO2)C1` (atropisomer, axis not shown) [Compound 752], for which the concentration for half-maximal inhibition (IC50) in assay [1] is 0.1 to 1 µM; in assay [2] (setting [5]) it was below 0.1 µM; in assay [3] (GP2d), below 0.1 µM; in assay [3] (GP2d, pERK HTRF, class symbols), below 0.1 µM; in assay [4] (setting [6]) it was 0.1 to 1 µM.
On to `CCN(c1nc(OC[C@@]23CCCN2C[C@H](F)C3)nc2c(F)c(-c3ccc(F)c4sc(N)c(C#N)c34)c(C(F)(F)F)cc12)[C@H]1C[C@H](C)N(C(=O)N2CC(OC)C2)C1` (atropisomer, axis not shown) [Compound 764], for which the 50% inhibitory concentration (IC50) in assay [1] is at most 0.1 µM; in assay [2] (setting [5]) it was below 0.1 µM; in assay [3] (GP2d) it was below 0.1 µM; in assay [3] (GP2d, pERK HTRF, class symbols), below 0.1 µM; in assay [4] (setting [6]) it was below 0.1 µM.
Regarding `CCN(c1nc(OC[C@@]23CCCN2C[C@H](F)C3)nc2c(F)c(-c3ccc(F)c4sc(N)c(C#N)c34)c(C(F)(F)F)cc12)[C@H]1C[C@H]2CCC(=O)N2C1` (atropisomer, axis not shown; (aR)) [Compound 573, 2-amino-4-((S)-4-(ethyl((2S,7aR)-5-oxohexahydro-1H-pyrrolizin-2-yl)amino)-8-fluoro-2-(((2R,7aS)-2-fluorotetrahydro-1H-pyrrolizin-7a(5H)-yl)methoxy)-6-(trifluoromethyl)quinazolin-7-yl)-7-fluorobenzo[b]thiophene-3-carbonitrile], the IC50 was at most 0.1 µM in assay [1]; below 0.1 µM in assay [2] (setting [5]); below 0.1 µM in assay [3] (GP2d); below 0.1 µM in assay [3] (GP2d, pERK HTRF, class symbols); below 0.1 µM in assay [4] (setting [6]).
Turning to `Cc1c(C(=O)N(C)C)nn2c1CN(c1nc(OC[C@@]34CCCN3C[C@H](F)C4)nc3c(F)c(-c4ccc(F)c5sc(N)c(C#N)c45)c(C(F)(F)F)cc13)CC2` (atropisomer, axis not shown; (aS)) [Compound 590, 5-((S)-7-(2-amino-3-cyano-7-fluorobenzo[b]thiophen-4-yl)-8-fluoro-2-(((2R,7aS)-2-fluorotetrahydro-1H-pyrrolizin-7a(5H)-yl)methoxy)-6-(trifluoromethyl)quinazolin-4-yl)-N,N,3-trimethyl-4,5,6,7-tetrahydropyrazolo[1,5-a]pyrazine-2-carboxamide], the half-maximal inhibitory concentration (IC50) in assay [1] is 0.1 to 1 µM; in assay [2] (setting [5]) it was below 0.1 µM; in assay [3], below 0.1 µM; in assay [3] (GP2d, pERK HTRF, class symbols) it was below 0.1 µM; in assay [4] (setting [6]), below 0.1 µM.
Regarding `CCN(c1nc(OC[C@@]23CCCN2C[C@H](F)C3)nc2c(F)c(-c3ccc(F)c4sc(N)c(C#N)c34)c(C(F)(F)F)cc12)[C@H]1CC(=O)N2CCC[C@@H]12` (atropisomer, axis not shown; (aS)) [Compound 697, 2-amino-4-((S)-4-(ethyl((1S,7aS)-3-oxohexahydro-1H-pyrrolizin-1-yl)amino)-8-fluoro-2-(((2R,7aS)-2-fluorotetrahydro-1H-pyrrolizin-7a(5H)-yl)methoxy)-6-(trifluoromethyl)quinazolin-7-yl)-7-fluorobenzo[b]thiophene-3-carbonitrile], the 50% inhibitory concentration (IC50) in assay [1] was at most 0.1 µM; in assay [2] (setting [5]), below 0.1 µM; in assay [3] (GP2d), below 0.1 µM; in assay [3] (GP2d, pERK HTRF, class symbols), below 0.1 µM; in assay [4] (setting [6]), below 0.1 µM.
Turning to `CC(=O)N1CC[C@@H](N(C)c2nc(OC[C@@]34CCCN3C[C@H](F)C4)nc3c(F)c(-c4ccc(F)c5sc(N)c(C#N)c45)c(C(F)(F)F)cc23)[C@H]1C` (single isomer, unassigned) [Compound 193], the IC50 is 0.1 to 1 µM in assay [1]; below 0.1 µM in assay [2] (setting [7]); below 0.1 µM in assay [3] (pERK HTRF); below 0.1 µM in assay [3] (GP2d); below 0.1 µM in assay [4] (setting [8]).
Consider `N#Cc1c(N)sc2c(F)ccc(-c3c(C(F)(F)F)cc4c(N5CCOCC5)nc(OC[C@@]56CCCN5C[C@H](F)C6)nc4c3F)c12` (single isomer, unassigned) [Compound 198], for which the IC50 was 0.1 to 1 µM in assay [1]; 0.1 to 1 µM in assay [2] (setting [7]); below 0.1 µM in assay [3] (pERK HTRF); below 0.1 µM in assay [3] (GP2d); 0.1 to 1 µM in assay [4] (setting [8]).
For the molecule `N#Cc1c(N)sc2c(F)ccc(-c3c(C(F)(F)F)cc4c(N5CC6CC(C5)O6)nc(OC[C@@]56CCCN5C[C@H](F)C6)nc4c3F)c12` (single isomer, unassigned) [Compound 275], the IC50 was 0.1 to 1 µM in assay [1]; 0.1 to 1 µM in assay [2] (setting [7]); below 0.1 µM in assay [3] (pERK HTRF); below 0.1 µM in assay [3] (GP2d); 0.1 to 1 µM in assay [4] (setting [8]).
Regarding `N#Cc1c(N)sc2c(F)ccc(-c3c(C(F)(F)F)cc4c(N5C[C@H]6C[C@@H]5CO6)nc(OC[C@@]56CCCN5C[C@H](F)C6)nc4c3F)c12` (single isomer, unassigned) [Compound 287], the 50% inhibitory concentration (IC50) is 0.1 to 1 µM in assay [1]; 0.1 to 1 µM in assay [2] (KRAS G12D-GppNHp/RAF1 RBD HTRF); below 0.1 µM in assay [3] (GP2d); below 0.1 µM in assay [3] (GP2d, pERK HTRF); 0.1 to 1 µM in assay [4] (KRAS G12V-GppNHp/RAF1 RBD HTRF).
In the case of `CN(c1nc(OC[C@@]23CCCN2C[C@H](F)C3)nc2c(F)c(-c3ccc(F)c4sc(N)c(C#N)c34)c(C(F)(F)F)cc12)[C@H]1C[C@@H](O)C1` [Compound 19, 2-amino-7-fluoro-4-((S)-8-fluoro-2-(((2R,7aS)-2-fluorotetrahydro-1H-pyrrolizin-7a(5H)-yl)methoxy)-4-(((1s,3R)-3-hydroxycyclobutyl)(methyl)amino)-6-(trifluoromethyl)quinazolin-7-yl)benzo[b]thiophene-3-carbonitrile], the 50% inhibitory concentration (IC50) in assay [1] is 0.1 to 1 µM; in assay [2] (setting [7]), below 0.1 µM; in assay [3], below 0.1 µM; in assay [3] (pERK HTRF) it was below 0.1 µM; in assay [4] (setting [8]), below 0.1 µM.
With `N#Cc1c(N)sc2c(F)ccc(-c3c(C(F)(F)F)cc4c(N5CC6CC(C5)O6)nc(OC[C@@]56CCCN5C[C@H](F)C6)nc4c3F)c12` [Compound 145], the IC50 in assay [1] was 1 to 10 µM; in assay [2] (setting [7]), 0.1 to 1 µM; in assay [3] (GP2d), below 0.1 µM; in assay [3] (GP2d, pERK HTRF), below 0.1 µM; in assay [4] (setting [8]), 0.1 to 1 µM.
On to `N#Cc1c(N)sc2c(F)ccc(-c3c(C(F)(F)F)cc4c(N5CCCOCC5)nc(OC[C@@]56CCCN5C[C@H](F)C6)nc4c3F)c12` [Compound 232], for which the IC50 in assay [1] was 0.1 to 1 µM; in assay [2] (setting [7]) it was below 0.1 µM; in assay [3] (GP2d) it was below 0.1 µM; in assay [3] (GP2d, pERK HTRF), below 0.1 µM; in assay [4] (setting [8]), 0.1 to 1 µM.
With `N#Cc1c(N)sc2c(F)ccc(-c3c(C(F)(F)F)cc4c(N5CCNS(=O)(=O)CC5)nc(OC[C@@]56CCCN5C[C@H](F)C6)nc4c3F)c12` [Compound 245], the 50% inhibitory concentration (IC50) in assay [1] was 0.1 to 1 µM; in assay [2] (setting [7]), below 0.1 µM; in assay [3] (GP2d), below 0.1 µM; in assay [3] (GP2d, pERK HTRF), below 0.1 µM; in assay [4] (setting [8]) it was 0.1 to 1 µM.
Regarding `N#Cc1c(N)sc2c(F)ccc(-c3c(C(F)(F)F)cc4c(N5C[C@H]6C[C@@H]5CO6)nc(OC[C@@]56CCCN5C[C@H](F)C6)nc4c3F)c12` [Compound 253, 2-amino-7-fluoro-4-[8-fluoro-2-[[(2R,8S)-2-fluoro-1,2,3,5,6,7-hexahydropyrrolizin-8-yl]methoxy]-4-[(1R,4R)-2-oxa-5-azabicyclo[2.2.1]heptan-5-yl]-6-(trifluoromethyl)quinazolin-7-yl]benzothiophene-3-carbonitrile], the IC50 in assay [1] is 1 to 10 µM; in assay [2] (setting [7]), 0.1 to 1 µM; in assay [3] (GP2d), below 0.1 µM; in assay [3] (GP2d, pERK HTRF) it was below 0.1 µM; in assay [4] (setting [8]) it was 0.1 to 1 µM.
As for `CCN(c1nc(OC[C@@]23CCCN2C[C@H](F)C3)nc2c(F)c(-c3ccc(F)c4sc(N)c(C#N)c34)c(C(F)(F)F)cc12)[C@H]1CCN(C(C)=O)C1` [Compound 262], the IC50 in assay [1] is 0.1 to 1 µM; in assay [2] (setting [7]) it was below 0.1 µM; in assay [3] (GP2d) it was below 0.1 µM; in assay [3] (GP2d, pERK HTRF) it was below 0.1 µM; in assay [4] (setting [8]), below 0.1 µM.
As to `CCN(c1nc(OC[C@@]23CCCN2C[C@H](F)C3)nc2c(F)c(-c3ccc(F)c4sc(N)c(C#N)c34)c(C(F)(F)F)cc12)[C@@H]1CCN(C(C)=O)C1` [Compound 268], the IC50 in assay [1] is 0.1 to 1 µM; in assay [2] (setting [7]) it was below 0.1 µM; in assay [3] (GP2d), below 0.1 µM; in assay [3] (GP2d, pERK HTRF), below 0.1 µM; in assay [4] (setting [8]), 0.1 to 1 µM.
As for `N#Cc1c(N)sc2c(F)ccc(-c3c(C(F)(F)F)cc4c(N5CCCC[C@@H](O)C5)nc(OC[C@@]56CCCN5C[C@H](F)C6)nc4c3F)c12` [Compound 286], the half-inhibitory concentration (IC50) in assay [1] was 0.1 to 1 µM; in assay [2] (KRAS G12D-GppNHp/RAF1 RBD HTRF), below 0.1 µM; in assay [3] (GP2d) it was below 0.1 µM; in assay [3] (GP2d, pERK HTRF) it was below 0.1 µM; in assay [4] (KRAS G12V-GppNHp/RAF1 RBD HTRF) it was 0.1 to 1 µM.

What is called IC50 is the concentration needed to halve the response being measured. Higher therefore signals weaker potency in that assay.

The values are drawn from patent US20260042764A1, “COMPOSITIONS AND METHODS FOR INHIBITION OF KRAS” (TheRas, Inc., priority 2022, published 2026).
